{"source": "patent US6794396B2", "about": "“Substituted pyridines useful for inhibiting cholesteryl ester transfer protein activity” (Pharmacia Corporation, priority 1998, dated 2004)", "key": {"CETP [1]": {"system": "CETP", "test": "Ex vivo CETP activity assay on serum of chronically infused hamsters", "type": "in vivo, golden Syrian hamster", "text": "(§1) Chronic inhibition of CETP can be achieved by administration of Dimethyl 5,5′-dithiobis[2-difluoromethyl)-4-(2-methylpropyl)-6-(trifluoromethyl)-3-pyridinecarboxylate] (Compound 181) to hamsters using Alzet pump delivery of Compound 181 into the jugular veins of hamsters. Inhibition of CETP should lead to an increase in HDL cholesterol with a concomitant decrease in LDL cholesterol. This can be determined by filtering serum obtained at different time intervals after initiation of inhibitor infusion and quantitating the amount of cholesterol in the LDL and HDL peaks, respectively. In addition the activity of CETP in the serum can be assessed in an ex vivo CETP activity assay.\n(§2) Serum cholesterol profiles were determined on pooled sera from each group. Total serum cholesterol and CETP activity were determined on individual serum samples. In hamsters administered Compound 181 chronically, there was a 30% reduction and 26% increase in LDL cholesterol and HDL cholesterol concentrations, respectively, compared to the vehicle group at Day 5. The decrease in LDL and increase in HDL persisted until Day 8 when the Alzet pump was exhausted. […] Therefore, it would appear that for every percent reduction in CETP activity determined by the ex vivo assay, there was a 2-3% decrease in LDL cholesterol or increase in HDL cholesterol concentrations."}, "CETP [2]": {"system": "CETP", "test": "Chronic inhibition of CETP activity in vivo: Alzet pump infusion, serum LDL/HDL cholesterol profiles by FPLC", "design": "species or system golden Syrian hamster", "text": "as §1\nMale golden Syrian hamsters were maintained on a diet of normal rodent chow enriched with 0.24% cholesterol for at least 2 weeks prior to study. On Day 1, the hamsters were anesthetized with pentobarbital. An indwelling catheter was inserted into the jugular vein and exteriorized onto the back of the neck. The hamsters received […] of Compound 181 (38.5 mg/kg) in a 2% ethanol:98% PEG400 vehicle, or the 2% ethanol:98% PEG400 vehicle alone. An Alzet pump was then attached to the jugular catheter which delivered a steady infusion of 24 μl/day for a dose of 1.3 mg/day(9.2 mg/kg/day). The hamsters received the vehicle (2% ETOH:98% PEG400) or Compound 181 for 8 days. The hamsters were maintained for 12 days. Blood samples were taken on day 1 (pre-bleed) at the time of surgery, and on days 5, 7, 8 and 12. Fast Protein Liquid Chromatography (FPLC) on tandem Superose 6 columns of pooled hamster serum was performed to obtain cholesterol profiles for the two experimental groups.\nas §2"}, "CETP [3]": {"biological_target": "T1, CETP (Homo sapiens, UniProt P11597)", "T1 construct": "made in house; host or cells: CHO cells (serum-free conditioned medium)", "T1 sequence (P11597 18-493)": "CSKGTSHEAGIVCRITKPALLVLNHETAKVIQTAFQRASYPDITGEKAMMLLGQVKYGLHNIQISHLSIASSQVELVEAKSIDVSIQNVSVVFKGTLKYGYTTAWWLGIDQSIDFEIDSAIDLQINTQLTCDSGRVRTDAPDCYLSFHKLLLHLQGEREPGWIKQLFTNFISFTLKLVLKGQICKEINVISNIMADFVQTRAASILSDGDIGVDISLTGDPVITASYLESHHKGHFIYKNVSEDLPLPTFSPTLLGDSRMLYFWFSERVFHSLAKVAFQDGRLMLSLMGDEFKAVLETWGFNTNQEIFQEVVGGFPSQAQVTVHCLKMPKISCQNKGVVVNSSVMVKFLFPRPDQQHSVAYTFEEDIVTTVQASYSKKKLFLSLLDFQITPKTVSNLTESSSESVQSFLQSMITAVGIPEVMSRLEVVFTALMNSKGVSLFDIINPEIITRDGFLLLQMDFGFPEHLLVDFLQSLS", "test": "CETP activity in vitro: transfer of [3H]CE from HDL donor to LDL acceptor particles", "type": "biochemical", "settings": "Table 5, compounds of formula T-5; read-out: IC50", "outline": "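Transfer of radiolabelled cholesteryl ester from HDL to LDL was followed over 2 h at 37 °C in Tris buffer (pH 7.4, 150 mM NaCl, 2 mM EDTA, 1% BSA), using CETP secreted by transfected CHO cells. Radioactivity in dextran sulfate/Mg-precipitated LDL was measured by scintillation counting, giving IC50.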"}, "[4]": {"settings": "Day 1 (pre-bleed), pooled serum"}, "[5]": {"settings": "Day 12, after pump exhausted at Day 8, pooled serum"}}}
{"smiles": "COC(=O)c1c(C(F)F)nc(C(F)(F)F)c(SSc2c(C(F)(F)F)nc(C(F)F)c(C(=O)OC)c2CC(C)C)c1CC(C)C", "note": "[Compound 181, Dimethyl 5,5′-Dithiobis[2-(difluoromethyl)-4-(2-methylpropyl)-6-(trifluoromethyl)-3-pyridinecarboxylate]]", "values": [{"measurement": "average reduction in CETP activity by ex vivo assay", "setting": "CETP [1]; Days 5 and 8", "value": 10, "unit": "%"}, {"measurement": "CETP activity by ex vivo assay", "setting": "CETP [1]; day 12", "value": "return to vehicle control level"}, {"measurement": "HDL cholesterol concentration, % of cholesterol concentration in vehicle group", "setting": "CETP [2]; [4]", "value": 105, "unit": "%"}, {"measurement": "LDL cholesterol concentration, % of cholesterol concentration in vehicle group", "setting": "CETP [2]; [4]", "value": 111, "unit": "%"}, {"measurement": "increase in HDL cholesterol concentration compared to the vehicle group", "setting": "CETP [2]; Day 5", "value": 26, "unit": "%"}, {"measurement": "reduction in LDL cholesterol concentration compared to the vehicle group", "setting": "CETP [2]; Day 5", "value": 30, "unit": "%"}, {"measurement": "HDL cholesterol concentration, % of cholesterol concentration in vehicle group", "setting": "CETP [2]; [5]", "value": 114, "unit": "%"}, {"measurement": "LDL cholesterol concentration, % of cholesterol concentration in vehicle group", "setting": "CETP [2]; [5]", "value": 90, "unit": "%"}, {"measurement": "IC50", "setting": "CETP [3]", "value": 1.5, "unit": "µM"}]}
